Consider 34 molecules from patent publication US20210038559A1, “CANNABINOIDS AND DERIVATIVES FOR PROMOTING IMMUNOGENICITY OF TUMOR AND INFECTED CELLS” (priority 2018, published 2021).

For series [1], the system named is MHC-I expression on COLO 205 cells. The experiment in a line: Phytocannabinoid MHC-I induction on COLO 205 cells, 0-100 μM, 48 hours. To be noted: for Fold Induction: MHC-I expression on COLO 205 cells, relative to control cells treated only with buffer. As to the method: FIG. 4. Cell surface MHC class I expression was measured by flow cytometry (MFI).
Phytocannabinoids were tested for MHC-I-inducing activity on COLO 205 cells. Each cannabinoid was tested at a concentration range of 0-100 μM. […] “ND” indicates not determined.

Series [2] concerns MHC-I expression by COLO 205 cells. The experiment in a line: cells. The series is classed as cell-based, human. As to conditions: for fold induction at 35 µM: Homo sapiens, COLO 205, 48 h, read-out: Induction Fold. Here is the method: A panel of synthetic cannabinoids (Cayman Chemical, #9002891) was tested for MHC class I-inducing capability in COLO 205 cells as described above. COLO 205 cells were treated with the compounds at a concentration of 35 μM and evaluated for cell surface MHC class I expression after 48 hours. Cells were harvested, stained with MHC-I mAb W6/32 (Thermo Fisher). MHC-I expression was determined by flow cytometry.

For series [3], the system named is MHC class I expression on COLO 205 cells. The experiment in a line: MHC class I expression on COLO 205 cells, 24 hours, flow cytometry (W6/32). Here is the method: FIG. 2A-2F. […] Cells were treated for 24 hours and cell surface MHC class I expression was measured by flow cytometry.
Cannabigerol was also tested for its capacity to induce MHC class I expression in a human colorectal carcinoma cell line, COLO 205. The cells were treated with either 25 μM or 50 μM cannabigerol for 24 hours. Fluorophor (Alexa Fluor 488)-conjugated W6/32 antibody (Thermo Fisher) was used in a flow cytometry assay to quantitate MHC class I expression. […] Cannabigerol is only one of many cannabinoid-like molecules with potential biopharmaceutical activity. […] COLO 205 cells were treated with up to 40 μM of the cannabinoids 1-5 presented in Tables 1 and 2 and evaluated for cell surface MHC class I expression as described above for cannabigerol.

Setting [4] is: induction of MHC-I expression on COLO 205 cells, 0-100 μM, 48 hours.
[5] abbreviates: MHC-I expression, COLO 205 cells, compounds at 35 μM, 48 hours, flow cytometry (W6/32).

Where two headings read alike, the source gives them in different places.

For orientation: EC50 means the concentration that produces a half-maximal response.

`CCCCCc1cc(O)c2c(c1)OC(C)(C)[C@@H]1CC=C(C)C[C@@H]21` [Example 383, 6aR,7,10,10aR-tetrahydro-6,6,9-trimethyl-3-pentyl-6H-dibenzo[b,d]pyran-1-ol]: the “Fold Induction” value in series [1] (0-100 μM, 48 hours) amounted to 4.1 Fold. Further, the EC50 in series [1] (setting [4]) amounted to 27 µM.

`C=C(C)[C@@H]1CCC(C)=C[C@H]1c1c(O)cc(CCC)cc1O` [Example 386, 2-[(1R,6R)-3-methyl-6-(1-methylethenyl)-2-cyclohexen-1-yl]-5-propyl-1,3-benzenediol] came in with an EC50 in series [1] (Homo sapiens, COLO 205, 48 h) of 19 µM. In addition, in series [1] (0-100 μM, 48 hours), the “Fold Induction” value is listed as 5.5 Fold.

Take `CCCc1cc(O)c2c(c1)OC(C)(C)c1ccc(C)cc1-2` [Example 385, 6,6,9-trimethyl-3-propyl-6H-dibenzo[b,d]pyran-1-ol]: the 50% effective concentration (EC50) in series [1] (Homo sapiens, COLO 205, 48 h) was 20 µM. Further, the “Fold Induction” value in series [1] (0-100 μM, 48 hours) stood at 3.9 Fold.

In turn, `CCCc1cc(O)c2c(c1)OC(C)(CCC=C(C)C)C=C2` (stereo not drawn) [Example 381, 2-methyl-2-(4-methylpent-3-enyl)-7-propylchromen-5-ol] had an EC50 in series [1] (Homo sapiens, COLO 205, 48 h) of 32 µM. The “Fold Induction” value in series [1] (0-100 μM, 48 hours) was determined as 3.3 Fold.

On to `C=C(C)[C@@H]1CCC(C)=C[C@H]1c1c(O)cc(CCCCC)cc1O` [cannabidiol (CBD)], for which the EC50 in series [1] (read-out: EC50 of MHC-I induction, COLO 205, 48 hours) was 10 µM.

In turn, `CCCCCc1cc(O)c2c(c1)OC1(C)CCC3C1C2C3(C)C` [Example 390, (1aS,1a^1R,3aR,8bR)-1,1,3a-trimethyl-6-pentyl-1a,1a^1,2,3,3a,8b-hexahydro-1H-4-oxabenzo[f]cyclobuta[cd]inden-8-ol] registered an EC50 in series [1] (Homo sapiens, COLO 205, 48 h) of 20 µM. The “Fold Induction” value in series [1] (0-100 μM, 48 hours) worked out at 4.2 Fold.

`CCCCCc1cc(O)c2c(c1)OC(C)(C)[C@@H]1CCC(C)=C[C@@H]21` [Example 384, 6aR,7,8,10aR-tetrahydro-6,6,9-trimethyl-3-pentyl-6H-dibenzo[b,d]pyran-1-ol]: the “Fold Induction” value in series [1] (0-100 μM, 48 hours) is listed as 6.1 Fold. In series [1] (setting [4]), this molecule returned an EC50 of 30 µM.

Consider `CC1=CC[C@@H]2[C@@H](C1)c1c(O)cc(C(C)(C)c3ccccc3)cc1OC2(C)C` [Example 367, 6aR,7,10,10aR-tetrahydro-6,6,9-trimethyl-3-(1-methyl-1-phenylethyl)-6H-dibenzo[b,d]pyran-1-ol], for which, in series [2] (setting [5]), the “Induction Fold” value was found to be 0.87 Fold.

Turning to `CCCCCn1cc(C(=O)Cc2ccccc2Br)c2ccccc21` [Example 120, 2-(2-bromophenyl)-1-(1-pentyl-1H-indol-3-yl)-ethanone], the fold induction at 35 µM in series [2] (setting [5]) was determined as 2.32.

On to `CCCC(F)Cn1nc(C(=O)NC(C(N)=O)C(C)C)c2ccccc21` (stereo not drawn) [Example 317, N-(1-amino-3-methyl-1-oxobutan-2-yl)-1-(2-fluoropentyl)-1H-indazole-3-carboxamide], for which the fold induction at 35 µM in series [2] (setting [5]) was 1.31.

For `CCCCCn1cc(C(=O)c2cccc3c(OC)cccc23)c2ccccc21` [Example 346, (5-methoxynaphthalen-1-yl)(1-pentyl-1H-indol-3-yl)methanone], the fold induction at 35 µM in series [2] (setting [5]) was found to be 1.13.

As for `CCCCCn1c(C)c(C(=O)c2cccc3ccccc23)c2ccccc21` [Example 98, (2-methyl-1-pentyl-1H-indol-3-yl)-1-naphthalenyl-methanone], in series [2] (setting [5]), the “Induction Fold” value is recorded as 2.43 Fold.

For `CCCCCCC(C)(C)c1ccc([C@H]2C[C@@H](O)CC[C@@H]2CCCO)c(O)c1` [Example 365, 2-((1S,2S,5S)-5-hydroxy-2-(3-hydroxypropyl)cyclohexyl)-5-(2-methyloctan-2-yl)phenol], in series [2] (setting [5]), the fold induction at 35 µM came out at 0.89.

In the case of `COC(=O)[C@@H](NC(=O)c1nn(CCCC(C)F)c2ccccc12)C(C)(C)C` (stereo partly drawn) [Example 84, methyl (2S)-2-(1-(4-fluoropentyl)-1H-indazole-3-carboxamido)-3,3-dimethylbutanoate], the fold induction at 35 µM in series [2] (setting [5]) came to 2.53.

On to `O=C(NCc1ccccc1)c1cn(CCCCCF)c2ccccc12` [Example 306, 1-(5-fluoropentyl)-N-(phenylmethyl)-1H-indole-3-carboxamide], for which the fold induction at 35 µM in series [2] (setting [5]) was found to be 1.38.

Consider `CCCCCn1cc(Cc2cccc3ccccc23)c2ccccc21` [Example 252, 3-(1-naphthalenylmethyl)-1-pentyl-1H-indole], for which, in series [2], the “Induction Fold” value stood at 1.61 Fold.

Consider `CCCCCn1cc(C(=O)c2cccc3ccccc23)cc1-c1ccccc1` [Example 77, 1-naphthalenyl(1-pentyl-5-phenyl-1H-pyrrol-3-yl)-methanone], for which the “Induction Fold” value in series [2] is recorded as 2.60 Fold.

Turning to `O=C(Oc1cccc2ccccc12)c1nn(CCCCCF)c2ccccc12` [Example 167, naphthalen-1-yl 1-(5-fluoropentyl)-1H-indazole-3-carboxylate], the fold induction at 35 µM in series [2] (setting [5]) worked out at 2.01.

For `CCCCCn1nc2ccccc2c1C(=O)Nc1cccc2ccccc12` [Example 294, N-(naphthalen-1-yl)-2-pentyl-2H-indazole-3-carboxamide], in series [2] (setting [5]), the fold induction at 35 µM worked out at 1.43.

Take `COCCn1c(C)c(C)sc1=NC(=O)C1C(C)(C)C1(C)C` [Example 95, [N(Z)]-N-[3-(2-methoxyethyl)-4,5-dimethyl-2(3H)-thiazolylidene]-2,2,3,3-tetramethyl-cyclopropanecarboxamide]: the “Induction Fold” value in series [2] (setting [5]) is 2.44 Fold.

Take `COC(=O)[C@@H](NC(=O)c1nn(Cc2ccc(F)cc2)c2ccccc12)C(C)C` [Example 15, N-[[1-[(4-fluorophenyl)methyl]-1H-indazol-3-yl]carbonyl]-L-valine, methyl ester]: the fold induction at 35 µM in series [2] (setting [5]) was found to be 4.2.

Consider `CCCCCn1cc(C(=O)Cc2ccc(OC)cc2)c2ccccc21` [Example 59, 2-(4-methoxyphenyl)-1-(1-pentyl-1H-indol-3-yl)-ethanone], for which the fold induction at 35 µM in series [2] (setting [5]) stood at 2.85.

On to `COc1ccc2c(c1)c(CC(=O)N1CCOCC1)c(C)n2C(=O)c1ccc(Cl)cc1` [Example 121, 2-[1-(4-chlorobenzoyl)-5-methoxy-2-methyl-1H-indol-3-yl]-1-(4-morpholinyl)-ethanone], for which the fold induction at 35 µM in series [2] (setting [5]) was 2.32.

In the case of `CCCCCn1cc(C(=O)Oc2cccc3ncccc23)c2ccccc21` [Example 131, quinolin-5-yl 1-pentyl-1H-indole-3-carboxylate], the fold induction at 35 µM in series [2] (setting [5]) was determined as 2.26.

For the molecule `Cc1c(C(=O)c2ccccc2)c(N)c(-c2ccccc2)n1Cc1ccc(Cl)cc1` [Example 27, [4-amino-1-[(4-chlorophenyl)methyl]-2-methyl-5-phenyl-1H-pyrrol-3-yl]phenyl-methanone], in series [2] (setting [5]), the fold induction at 35 µM came to 3.43.

For `CCCCCn1cc(C(=O)c2c(C)ccc3ccccc23)c2ccccc21` [Example 25, (2-methylnaphthalen-1-yl)(1-pentyl-1H-indol-3-yl)methanone], in series [2] (setting [5]), the fold induction at 35 µM is 3.6.

As for `CCCCCn1cc(C(=O)c2ccc(CC)c3ccccc23)c2ccccc21` [Example 180, (4-ethyl-1-naphthalenyl)(1-pentyl-1H-indol-3-yl)-methanone], the fold induction at 35 µM in series [2] (setting [5]) came to 1.93.

For `CCCCCn1cc(C(=O)c2cc(OC)cc3ccccc23)c2ccccc21` [Example 234, (3-methoxynaphthalen-1-yl)(1-pentyl-1H-indol-3-yl)methanone], the fold induction at 35 µM in series [2] (setting [5]) is 1.71.

`CCCCCn1c(C)c(C(=O)c2ccc(CC)c3ccccc23)c2ccccc21` [Example 244, (4-ethyl-1-naphthalenyl)(2-methyl-1-pentyl-1H-indol-3-yl)-methanone]: the fold induction at 35 µM in series [2] (setting [5]) is 1.66.

For the molecule `CCCC(C)(C)c1ccc2c(c1)OC(C)(C)[C@@H]1CC=C(C)C[C@@H]21` [Example 188, 3-(1,1-dimethylbutyl)-6aR,7,10,10aR-tetrahydro-6,6,9-trimethyl-6H-dibenzo[b,d]pyran], in series [2] (setting [5]), the “Induction Fold” value is given as 1.90 Fold.

With `CN1CCCCC(n2cc(C(=O)C34CC5CC(CC(C5)C3)C4)c3ccccc32)C1` (stereo not drawn) [Example 93, (3,5,7)-adamantan-1-yl(1-(1-methylazepan-3-yl)-1H-indol-3-yl)methanone], the “Induction Fold” value in series [2] (setting [5]) stood at 2.46 Fold.

With `CCCCCn1cc(C(=O)c2cccc(OC)c2)c2ccccc21` [Example 56, (3-methoxyphenyl)(1-pentyl-1H-indol-3-yl)methanone], the fold induction at 35 µM in series [2] (setting [5]) was 2.9.

Regarding `CCCCCCC(C)(C)c1ccc([C@H]2CCC[C@@H](O)C2)c(O)c1` [Example 371, 2[(1S,3R)-3-hydroxycyclohexyl]-5-(2-methyloctan-2-yl)phenol], the fold induction at 35 µM in series [2] (setting [5]) came to 0.78.

B1: Interferon-γ: a natural cytokine known to stimulate MHC class I expression in many mammalian cells (protein, UniProt P01579 24-161, looked up)
Interferon gamma: QDPYVKEAENLKKYFNAGHSDVADNGTLFLGILKNWKEESDRKIMQSQIVSFYFKLFKNFKDDQSIQKSVETIKEDMNVKFFNSNKKKRDDFEKLTNYSVTDLNVQRKAIHELIQVMAELSPAAKTGKRKRSQMLFRG
As for B1, the “Fold Induction” value came out at 0.98 in series [3] (COLO 205, 0.004 ng/mL); 2.07 in series [3] (COLO 205, 0.040 ng/mL); 3.99 in series [3] (COLO 205, 1.000 ng/mL).
